From patent US11612604B2, “Methods of treating cancer with PLK4 inhibitors” (LUDWIG INSTITUTE FOR CANCER RESEARCH LTD, priority 2017, dated 2023)

Molecular target: T1, PLK4 (Homo sapiens, UniProt O00444)
T1 sequence (O00444 1-970): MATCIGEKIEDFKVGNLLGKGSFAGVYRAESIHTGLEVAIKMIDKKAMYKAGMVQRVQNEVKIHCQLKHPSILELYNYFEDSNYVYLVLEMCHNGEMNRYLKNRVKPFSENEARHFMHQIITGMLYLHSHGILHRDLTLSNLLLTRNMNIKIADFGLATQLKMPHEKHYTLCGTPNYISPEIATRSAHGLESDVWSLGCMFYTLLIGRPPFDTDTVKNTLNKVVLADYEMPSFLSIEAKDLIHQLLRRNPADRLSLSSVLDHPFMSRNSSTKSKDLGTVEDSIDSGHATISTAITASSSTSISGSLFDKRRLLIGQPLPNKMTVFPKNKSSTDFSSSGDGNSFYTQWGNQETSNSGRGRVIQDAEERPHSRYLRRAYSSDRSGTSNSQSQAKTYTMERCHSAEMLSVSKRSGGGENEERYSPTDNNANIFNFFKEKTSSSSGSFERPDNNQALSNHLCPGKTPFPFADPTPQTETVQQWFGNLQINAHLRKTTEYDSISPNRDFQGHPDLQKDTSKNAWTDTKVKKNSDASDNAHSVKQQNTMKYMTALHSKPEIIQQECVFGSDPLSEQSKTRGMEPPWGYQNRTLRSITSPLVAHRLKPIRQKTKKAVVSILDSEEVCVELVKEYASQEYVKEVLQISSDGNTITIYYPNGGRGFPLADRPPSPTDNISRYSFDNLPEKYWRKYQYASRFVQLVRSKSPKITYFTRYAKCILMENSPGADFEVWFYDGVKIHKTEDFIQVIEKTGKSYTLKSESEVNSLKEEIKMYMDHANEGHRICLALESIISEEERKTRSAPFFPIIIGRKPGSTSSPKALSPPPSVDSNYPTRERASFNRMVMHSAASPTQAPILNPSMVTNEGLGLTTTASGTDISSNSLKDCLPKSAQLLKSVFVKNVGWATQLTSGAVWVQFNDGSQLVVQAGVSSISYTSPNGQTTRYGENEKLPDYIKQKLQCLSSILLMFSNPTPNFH
Experiment: Activity (IC50) of the Table 1 compounds as PLK4 inhibitors
Assay type: biochemical
Conditions: Table 1, IC50 class

Row | Compound | IC50
1 | Cc1cc(Nc2nc(Sc3ccc(NC(=O)C4CCCC4)cc3)nc(N3CCCCC3)c2C)n[nH]1 | < 100 nM
2 | COc1c(Nc2cc(C)[nH]n2)nc(Sc2ccc(S(=O)(=O)C(C)(C)c3cccc([N+](=O)[O-])c3F)cc2F)nc1N1CCC(CCO)CC1 | < 100 nM
3 | COc1c(Nc2cc(C)[nH]n2)nc(Sc2ccc(NC(=O)C3CCCC3)cc2)nc1N(C)C | < 100 nM
4 | COc1c(Nc2cc(C)[nH]n2)nc(Sc2ccc(NC(=O)C3CC3)cc2)nc1N1CCN(CCN(C)C)CC1 | < 100 nM
5 | COc1c(Nc2cc(C)[nH]n2)nc(Sc2ccc(S(=O)(=O)Cc3ccccc3)cc2)nc1N1CCN(CCN2C(C)CCCC2C)CC1 (stereo not shown) | < 100 nM
6 | COc1c(Nc2cc(C)[nH]n2)nc(Sc2ccc(S(=O)(=O)C(C)(C)c3ccncn3)cc2)nc1N1CCN(CCN(C)C)CC1 | < 100 nM
7 | COc1c(Nc2cc(C)[nH]n2)nc(Sc2ccc(S(=O)(=O)C(C)(C)c3cccc([N+](=O)[O-])c3F)cc2F)nc1N1CCC(N)CC1 | < 100 nM
8 | COc1c(Nc2cc(C)[nH]n2)nc(Sc2ccc(S(=O)(=O)Cc3ccccc3)cc2)nc1N1CCOC[C@@H]1C | < 100 nM
9 | COc1ccc([N+](=O)[O-])cc1CS(=O)(=O)c1ccc(Sc2nc(Nc3cc(C)[nH]n3)c(OC)c(N3CCN(CCN(C)C)CC3)n2)cc1 | < 100 nM
10 | COc1c(Nc2cc(C)[nH]n2)nc(Sc2ccc(NC(C)=O)cc2)nc1N1CCN(CCN(C)C)CC1C (stereo not shown) | < 100 nM
11 | COc1c(Nc2cc(C)[nH]n2)nc(Sc2ccc(S(=O)(=O)Cc3cccc([N+](=O)[O-])c3O)cc2)nc1N1CCN(CCN(C)C)CC1 | < 100 nM
12 | COc1c(Nc2cc(C)[nH]n2)nc(Sc2ccc(C(=O)Cc3cccc([N+](=O)[O-])c3F)cc2F)nc1N1CCOCC1 | < 100 nM
13 | COc1c(Nc2cc(C)[nH]n2)nc(Sc2ccc(S(=O)(=O)C(C)(C)c3c(F)c(F)cc(F)c3F)cc2F)nc1N1CCC(CC(N)=O)CC1 | < 100 nM
14 | Cc1cc(Nc2nc(Sc3ccc(N)cc3)nc(N(C)C(C)C)c2C)n[nH]1 | < 100 nM
15 | COc1c(Nc2cc(C)[nH]n2)nc(Sc2ccc(S(=O)(=O)Cc3ccccc3)cc2)nc1N1CCN(C)CC1 | < 100 nM
16 | COc1c(Nc2cc(C)[nH]n2)nc(Sc2ccc(S(=O)(=O)C(C)(C)c3cccc([N+](=O)[O-])c3F)cc2F)nc1N1CCC(CC(=O)N(C)C)CC1 | < 100 nM
17 | CC(=O)Nc1ccc(Sc2nc(Nc3cc(C)[nH]n3)c(C)c(N3CCNCC3)n2)cc1 | < 100 nM
18 | CNc1ccc(Sc2nc(Nc3cc(C)[nH]n3)c(C)c(N3CCCCC3)n2)cc1 | < 100 nM
19 | COc1c(Nc2cc(C)[nH]n2)nc(Sc2ccc(NC(C)=O)cc2)nc1N1CCC(C(C)=O)CC1 | < 100 nM
20 | COc1c(Nc2cc(C)[nH]n2)nc(Sc2ccc(NC(C)=O)cc2)nc1N1CCN(CCNC(C)=O)CC1 | < 100 nM
21 | CNC(=O)Nc1ccc(Sc2nc(Nc3cc(C)[nH]n3)c(C)c(N3CCOCC3)n2)cc1 | < 100 nM
22 | COc1c(Nc2cc(C)[nH]n2)nc(Sc2ccc(S(=O)(=O)Cc3ccccc3)cc2)nc1N1CCCCC1 | < 100 nM
23 | COc1c(Nc2cc(C)[nH]n2)nc(Sc2ccc(S(=O)(=O)Cc3ccccc3N(C)C)cc2)nc1N1CCN(CCN(C)C)CC1 | < 100 nM

Row | Compound | IC50
24 | COc1c(Nc2cc(C)[nH]n2)nc(Sc2ccc(S(=O)(=O)C(C)(C)c3c(F)c(F)c(F)c(F)c3F)cc2F)nc1N1CCN(CCN(C)C)CC1 | < 100 nM
25 | CC(=O)Nc1ccc(Sc2nc(Nc3cc(C)[nH]n3)c(C)c(N3CCC(F)CC3)n2)cc1 | < 100 nM
26 | COc1c(Nc2cc(C)[nH]n2)nc(Sc2ccc(S(=O)(=O)Cc3cccc([N+](=O)[O-])c3F)cc2F)nc1N1CCC(CCNC(C)=O)CC1 | < 100 nM
27 | COc1c(Nc2cc(C)[nH]n2)nc(Sc2ccc(S(=O)(=O)C(C)(C)c3cccc([N+](=O)[O-])c3F)cc2F)nc1N1CCC(NC(=O)C(F)(F)F)CC1 | < 100 nM
28 | CC(=O)Nc1ccc(Sc2nc3c(c(Nc4cc(C)[nH]n4)n2)C(C)CC3)cc1 (stereo not shown) | < 100 nM
29 | COc1c(Nc2cc(C)[nH]n2)nc(Sc2ccc(NC(C)=O)cc2)nc1N1CCN(CCN2CCCCC2)CC1 | < 100 nM
30 | COc1c(Nc2cc(C)[nH]n2)nc(Sc2ccc(NC(C)=O)cc2)nc1N1CCN(C)CC1 | < 100 nM
31 | COc1c(Nc2cc(C)[nH]n2)nc(Sc2ccc(S(=O)(=O)Cc3ccncc3)cc2)nc1N1CCN(CCN(C)C)CC1 | < 100 nM
32 | COc1c(Nc2cc(C)[nH]n2)nc(Sc2ccc(NC(C)=O)cc2)nc1N1CCN(C(N)=O)CC1 | < 100 nM
33 | COc1c(Nc2cc(C)[nH]n2)nc(Sc2ccc(S(=O)(=O)Cc3ccccc3)cc2)nc1N1CCN(CCN2CCCCCC2)CC1 | < 100 nM
34 | CCOc1c(Nc2cc(C)[nH]n2)nc(Sc2ccc(S(=O)(=O)CC)cc2)nc1N1CCC(CCN(C)C)CC1 | < 100 nM
35 | COc1c(Nc2cc(C)[nH]n2)nc(Sc2ccc(NC(C)=O)cc2)nc1N1CCC(N(C)C)CC1 | < 100 nM
36 | COc1c(Nc2cc(C)[nH]n2)nc(Sc2ccc(NC(C)=O)cc2)nc1N1CCN(CCN2CCCC2)CC1 | < 100 nM
37 | COc1c(Nc2cc(C)[nH]n2)nc(Sc2ccc(S(=O)(=O)Cc3cccc([N+](=O)[O-])c3F)cc2F)nc1N1CCOC[C@@H]1CO | < 100 nM
38 | COc1c(Nc2cc(C)[nH]n2)nc(Sc2ccc(S(=O)(=O)Cc3ccccc3)cc2)nc1N1CCN(CCN2CCCCC2)CC1 | < 100 nM
39 | COc1c(Nc2cc(C)[nH]n2)nc(Sc2ccc(S(=O)(=O)Cc3ccccc3)cc2F)nc1N1CCN(CCN(C)C)CC1 | < 100 nM
40 | COc1c(Nc2cc(C)[nH]n2)nc(Sc2ccc(NC(C)=O)cc2)nc1N1CCN(CCN(C)c2ccccc2)CC1 | < 100 nM
41 | COc1c(Nc2cc(C)[nH]n2)nc(Sc2ccc(S(C)(=O)=O)cc2)nc1N1CCN(CCN2CCN(C)CC2)CC1 | < 100 nM
42 | CC(=O)Nc1ccc(Sc2nc(Nc3cc(C)[nH]n3)c(C)c(N3CCOCC3)n2)cc1 | < 100 nM
43 | COc1c(Nc2cc(C)[nH]n2)nc(Sc2ccc(NC(C)=O)cc2)nc1C1=CCNCC1 | < 100 nM
44 | COc1c(Nc2cc(C)[nH]n2)nc(Sc2ccc(S(=O)(=O)Cc3cccc(C#N)c3F)cc2F)nc1N1CCN(CCN(C)C)CC1 | < 100 nM
45 | COc1c(Nc2cc(C)[nH]n2)nc(Sc2ccc([N+](=O)[O-])cc2)nc1N1CCN(CCN(C)C)CC1 | < 100 nM
46 | COc1c(Nc2cc(C)[nH]n2)nc(Sc2ccc(S(=O)(=O)C(C)C)cc2)nc1N1CCN(CCN(C)C)CC1 | < 100 nM

Row | Compound | IC50
47 | COc1c(Nc2cc(C)[nH]n2)nc(Sc2ccc(S(=O)(=O)C(C)(C)c3cccc([N+](=O)[O-])c3F)cc2F)nc1N1CCCCC1 | < 100 nM
48 | CCN1CCN(c2nc(Sc3ccc(NC(C)=O)cc3)nc(Nc3cc(C)[nH]n3)c2C)CC1 | < 100 nM
49 | COc1c(Nc2cc(C)[nH]n2)nc(Sc2ccc(S(=O)(=O)C(C)(C)c3cccnc3)cc2)nc1N1CCN(CCN(C)C)CC1 | < 100 nM
50 | COc1c(Nc2cc(C)[nH]n2)nc(Sc2ccc(S(=O)(=O)C(C)(C)c3c(F)c(F)c(F)c(F)c3F)cc2F)nc1N1CCC(CCN(C)C)CC1 | < 100 nM
51 | COc1c(Nc2cc(C)[nH]n2)nc(Sc2ccc(NC(C)=O)cc2)nc1N1CCC(F)(F)CC1 | < 100 nM
52 | CC(=O)Nc1ccc(Sc2nc(Nc3cc(C)[nH]n3)c(C)c(N3CCCCC3C)n2)cc1 (stereo not shown) | < 100 nM
53 | Cc1cc(Nc2nc(Sc3ccc(NC(=O)C4CC4)cc3)nc(C)c2C)n[nH]1 | < 100 nM
54 | COc1c(Nc2cc[nH]n2)nc(Sc2ccc(S(=O)(=O)Cc3cccc([N+](=O)[O-])c3F)cc2F)nc1N1CCOCC1 | < 100 nM
55 | COc1c(Nc2cc(C)[nH]n2)nc(Sc2ccc(S(=O)(=O)Cc3cccc([N+](=O)[O-])c3F)cc2F)nc1N1CCC(CCN(C)C)CC1 | < 100 nM
56 | CCN(C)c1nc(Sc2ccc(NC(=O)C3CCCC3)cc2)nc(Nc2cc(C)[nH]n2)c1C | < 100 nM
57 | COc1c(Nc2cc(C)[nH]n2)nc(Sc2ccc(S(=O)(=O)Cc3ccccc3)cc2)nc1N1CCO[C@H](C)C1 | < 100 nM
58 | COc1c(Nc2cc(C)[nH]n2)nc(Sc2ccc(S(=O)(=O)Cc3ccccc3C(F)(F)F)cc2)nc1N1CCN(CCN(C)C)CC1 | < 100 nM
59 | CCOc1c(Nc2cc(C)[nH]n2)nc(Sc2ccc(S(=O)(=O)Cc3ccccc3)cc2)nc1N1CCN(CCN(C)C)CC1 | < 100 nM
60 | CCC1CCc2nc(Sc3ccc(NC(=O)C4CC4)cc3)nc(Nc3cc(C)[nH]n3)c21 (stereo not shown) | < 100 nM
61 | CCN(CC)c1nc(Sc2ccc(S(=O)(=O)Cc3ccccc3)cc2)nc(Nc2cc(C)[nH]n2)c1OC | < 100 nM
62 | COCCN(C)c1nc(Sc2ccc(NC(=O)C3CC3)cc2)nc(Nc2cc(C)[nH]n2)c1C | < 100 nM
63 | CCOc1c(Nc2cc(C)[nH]n2)nc(Sc2ccc(S(=O)(=O)Cc3ccccc3)cc2)nc1N1CCNCC1 | < 100 nM
64 | COc1c(Nc2cc(C)[nH]n2)nc(Sc2ccc(S(=O)(=O)Cc3cccc([N+](=O)[O-])c3)cc2F)nc1N1CCN(CCN(C)C)CC1 | < 100 nM
65 | CCOc1c(Nc2cc(C)[nH]n2)nc(Sc2ccc(NC(=O)C3CC3)cc2)nc1N1CCNCC1 | < 100 nM
66 | COc1c(Nc2cc(C)[nH]n2)nc(Sc2ccc(S(=O)(=O)Cc3ccccc3C(N)=O)cc2)nc1N1CCN(CCN(C)C)CC1 | < 100 nM
67 | CCN1CCN(c2nc(Sc3ccc(NC(=O)C4CC4)cc3)nc(Nc3cc(C)[nH]n3)c2OC)CC1 | < 100 nM
